Reference: ChEMBL document CHEMBL4507274 (2021)

Experiments:
[1] = target: Mitotic checkpoint serine/threonine-protein kinase BUB1 (Homo sapiens) (UniProt O43683); details: Compound concentration 100.0 nM
[2] = system: Tyrosine-protein kinase ABL1 (Homo sapiens), P00519 [F317I]; details: Compound concentration 100.0 nM
[3] = target: Myosin-IIIb (Homo sapiens) (UniProt Q8WXR4); details: Compound concentration 100.0 nM
[4] = target: Tyrosine-protein kinase ABL1 (Homo sapiens) (UniProt P00519); details: Compound concentration 100.0 nM
[5] = target: Tyrosine-protein kinase FRK (Homo sapiens) (UniProt P42685); details: Compound concentration 100.0 nM
[6] = target: Mitogen-activated protein kinase kinase kinase 9 (Homo sapiens) (UniProt P80192); details: Compound concentration 100.0 nM
Chain of Mitogen-activated protein kinase kinase kinase 9 (Homo sapiens) (P80192 whole entry, looked up): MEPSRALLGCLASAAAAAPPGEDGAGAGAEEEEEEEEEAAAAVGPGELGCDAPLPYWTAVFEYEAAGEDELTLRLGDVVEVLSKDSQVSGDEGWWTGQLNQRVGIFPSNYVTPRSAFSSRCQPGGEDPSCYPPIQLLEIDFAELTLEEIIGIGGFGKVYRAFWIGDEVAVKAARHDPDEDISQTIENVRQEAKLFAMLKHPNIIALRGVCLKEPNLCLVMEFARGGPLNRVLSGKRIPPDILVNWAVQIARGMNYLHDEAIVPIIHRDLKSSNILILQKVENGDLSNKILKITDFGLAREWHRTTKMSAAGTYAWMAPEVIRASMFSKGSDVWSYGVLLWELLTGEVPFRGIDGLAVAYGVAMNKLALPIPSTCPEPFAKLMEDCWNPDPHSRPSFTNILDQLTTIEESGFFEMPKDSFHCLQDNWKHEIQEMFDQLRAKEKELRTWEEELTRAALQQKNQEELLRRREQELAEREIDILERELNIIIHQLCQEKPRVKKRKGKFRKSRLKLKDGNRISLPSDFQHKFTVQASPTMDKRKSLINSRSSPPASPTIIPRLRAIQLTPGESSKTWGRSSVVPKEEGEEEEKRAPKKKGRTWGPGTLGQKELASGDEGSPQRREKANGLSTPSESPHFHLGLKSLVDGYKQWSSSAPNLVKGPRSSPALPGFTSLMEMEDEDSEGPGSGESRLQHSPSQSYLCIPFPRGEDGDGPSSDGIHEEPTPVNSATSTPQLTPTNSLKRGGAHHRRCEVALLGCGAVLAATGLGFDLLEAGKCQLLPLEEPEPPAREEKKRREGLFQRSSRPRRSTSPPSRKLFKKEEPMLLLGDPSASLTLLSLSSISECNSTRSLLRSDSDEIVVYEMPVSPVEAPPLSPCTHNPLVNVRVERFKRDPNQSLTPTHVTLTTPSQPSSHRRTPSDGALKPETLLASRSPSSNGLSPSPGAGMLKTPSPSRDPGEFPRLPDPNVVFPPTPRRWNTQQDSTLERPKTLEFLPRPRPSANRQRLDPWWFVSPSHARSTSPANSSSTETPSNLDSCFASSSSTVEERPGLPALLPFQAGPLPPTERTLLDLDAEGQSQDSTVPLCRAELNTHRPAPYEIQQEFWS

[7] = target: Serine/threonine-protein kinase WNK3 (Homo sapiens) (UniProt Q9BYP7); details: Compound concentration 100.0 nM
[8] = target: Mitogen-activated protein kinase 11 (Homo sapiens) (UniProt Q15759); details: Compound concentration 100.0 nM
Chain of Mitogen-activated protein kinase 11 (Homo sapiens) (Q15759 whole entry): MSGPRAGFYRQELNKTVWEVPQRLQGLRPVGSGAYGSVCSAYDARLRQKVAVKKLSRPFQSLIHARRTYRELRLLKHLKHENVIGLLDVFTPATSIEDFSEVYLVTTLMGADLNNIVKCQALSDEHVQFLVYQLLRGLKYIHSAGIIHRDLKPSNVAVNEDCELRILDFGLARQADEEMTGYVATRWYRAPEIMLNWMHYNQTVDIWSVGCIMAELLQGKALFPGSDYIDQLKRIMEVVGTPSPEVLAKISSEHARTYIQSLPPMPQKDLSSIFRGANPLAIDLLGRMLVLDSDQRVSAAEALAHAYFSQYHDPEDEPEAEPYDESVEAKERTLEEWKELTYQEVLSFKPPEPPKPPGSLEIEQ

[9] = target: Death-associated protein kinase 2 (Homo sapiens) (UniProt Q9UIK4); details: Compound concentration 100.0 nM
[10] = target: Dual specificity tyrosine-phosphorylation-regulated kinase 1A (Homo sapiens) (UniProt Q13627); details: Compound concentration 100.0 nM
[11] = target: Phosphatidylinositol 4-kinase beta (Homo sapiens) (UniProt Q9UBF8); details: Compound concentration 100.0 nM
[12] = target: Dual specificity mitogen-activated protein kinase kinase 1 (Homo sapiens) (UniProt Q02750); details: Compound concentration 100.0 nM
[13] = system: eIF-2-alpha kinase GCN2 (Homo sapiens), Q9P2K8 [S808G]; details: Compound concentration 100.0 nM
Chain of eIF-2-alpha kinase GCN2 (Homo sapiens), Q9P2K8 [S808G] (Q9P2K8 whole entry S808G): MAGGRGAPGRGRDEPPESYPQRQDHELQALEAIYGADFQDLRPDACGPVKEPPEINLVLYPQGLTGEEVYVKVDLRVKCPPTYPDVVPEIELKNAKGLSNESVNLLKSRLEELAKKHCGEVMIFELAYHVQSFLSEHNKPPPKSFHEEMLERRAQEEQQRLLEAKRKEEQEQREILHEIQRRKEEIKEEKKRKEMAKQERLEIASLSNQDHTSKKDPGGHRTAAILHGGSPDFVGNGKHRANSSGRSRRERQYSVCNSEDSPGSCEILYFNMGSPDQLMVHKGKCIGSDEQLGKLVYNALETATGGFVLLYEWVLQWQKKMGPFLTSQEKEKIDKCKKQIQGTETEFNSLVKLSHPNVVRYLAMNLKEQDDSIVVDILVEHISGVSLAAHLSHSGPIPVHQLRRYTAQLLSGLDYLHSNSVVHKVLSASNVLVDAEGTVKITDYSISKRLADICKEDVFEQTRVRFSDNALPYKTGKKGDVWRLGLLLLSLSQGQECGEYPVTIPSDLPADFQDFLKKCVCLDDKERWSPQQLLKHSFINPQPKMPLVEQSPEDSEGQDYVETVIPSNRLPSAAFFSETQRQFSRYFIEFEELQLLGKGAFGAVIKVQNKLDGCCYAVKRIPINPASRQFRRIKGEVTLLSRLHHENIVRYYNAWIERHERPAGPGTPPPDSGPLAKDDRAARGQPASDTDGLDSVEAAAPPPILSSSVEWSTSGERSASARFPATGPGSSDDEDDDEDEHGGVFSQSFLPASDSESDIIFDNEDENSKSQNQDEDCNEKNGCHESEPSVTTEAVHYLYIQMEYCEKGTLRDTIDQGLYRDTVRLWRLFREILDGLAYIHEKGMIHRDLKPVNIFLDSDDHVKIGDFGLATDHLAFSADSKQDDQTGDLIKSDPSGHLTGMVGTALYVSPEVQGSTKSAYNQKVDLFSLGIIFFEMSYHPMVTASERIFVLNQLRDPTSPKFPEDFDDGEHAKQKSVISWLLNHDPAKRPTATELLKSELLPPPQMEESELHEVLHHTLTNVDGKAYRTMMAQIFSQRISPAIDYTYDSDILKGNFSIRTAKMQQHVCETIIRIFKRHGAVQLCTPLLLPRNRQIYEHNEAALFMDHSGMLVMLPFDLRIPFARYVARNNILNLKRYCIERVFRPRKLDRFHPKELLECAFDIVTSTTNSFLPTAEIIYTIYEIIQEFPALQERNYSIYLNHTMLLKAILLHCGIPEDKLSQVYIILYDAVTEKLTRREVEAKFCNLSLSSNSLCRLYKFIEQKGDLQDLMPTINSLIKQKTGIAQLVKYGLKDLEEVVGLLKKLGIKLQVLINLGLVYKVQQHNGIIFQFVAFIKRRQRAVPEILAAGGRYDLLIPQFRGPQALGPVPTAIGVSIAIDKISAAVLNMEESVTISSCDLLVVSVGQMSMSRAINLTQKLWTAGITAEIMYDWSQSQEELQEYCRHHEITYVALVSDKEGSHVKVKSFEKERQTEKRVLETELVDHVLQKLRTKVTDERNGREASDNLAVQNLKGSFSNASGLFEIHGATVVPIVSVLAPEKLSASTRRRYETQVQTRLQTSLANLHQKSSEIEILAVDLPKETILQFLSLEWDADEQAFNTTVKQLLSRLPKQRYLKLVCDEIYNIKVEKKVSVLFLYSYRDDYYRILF

[14] = target: Serine/threonine-protein kinase mTOR (Homo sapiens) (UniProt P42345); details: Compound concentration 100.0 nM
[15] = target: D(4) dopamine receptor (Homo sapiens) (UniProt P21917); details: Compound concentration 10.0 uM
[16] = target: Macrophage colony-stimulating factor 1 receptor (Homo sapiens) (UniProt P07333); details: Compound concentration 100.0 nM
Chain of Macrophage colony-stimulating factor 1 receptor (Homo sapiens) (P07333 whole entry): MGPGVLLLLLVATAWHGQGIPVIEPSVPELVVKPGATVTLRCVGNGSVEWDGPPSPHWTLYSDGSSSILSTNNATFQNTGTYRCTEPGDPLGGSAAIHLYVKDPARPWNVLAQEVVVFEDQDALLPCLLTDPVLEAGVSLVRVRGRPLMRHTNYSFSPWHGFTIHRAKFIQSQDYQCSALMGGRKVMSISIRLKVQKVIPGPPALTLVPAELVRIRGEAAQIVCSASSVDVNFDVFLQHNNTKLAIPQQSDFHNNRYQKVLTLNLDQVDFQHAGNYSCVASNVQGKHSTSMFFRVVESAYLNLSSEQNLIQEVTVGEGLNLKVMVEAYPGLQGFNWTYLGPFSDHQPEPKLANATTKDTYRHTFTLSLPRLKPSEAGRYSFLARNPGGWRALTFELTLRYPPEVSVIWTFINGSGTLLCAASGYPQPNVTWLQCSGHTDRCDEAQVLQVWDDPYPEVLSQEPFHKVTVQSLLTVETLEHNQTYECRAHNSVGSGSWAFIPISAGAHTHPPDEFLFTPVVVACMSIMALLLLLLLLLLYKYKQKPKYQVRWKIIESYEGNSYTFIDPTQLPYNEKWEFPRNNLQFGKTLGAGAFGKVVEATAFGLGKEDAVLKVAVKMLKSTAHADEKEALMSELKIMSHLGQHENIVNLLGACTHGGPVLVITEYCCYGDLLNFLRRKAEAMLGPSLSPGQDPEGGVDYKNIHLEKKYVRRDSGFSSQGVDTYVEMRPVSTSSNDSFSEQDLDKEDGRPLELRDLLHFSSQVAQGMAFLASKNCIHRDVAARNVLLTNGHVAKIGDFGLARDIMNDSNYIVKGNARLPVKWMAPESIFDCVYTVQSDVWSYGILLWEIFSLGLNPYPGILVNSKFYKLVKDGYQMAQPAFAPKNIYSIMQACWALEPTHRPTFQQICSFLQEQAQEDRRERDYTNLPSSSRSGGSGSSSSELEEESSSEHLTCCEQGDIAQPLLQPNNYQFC

[17] = target: Wee1-like protein kinase (Homo sapiens) (UniProt P30291); details: Compound concentration 100.0 nM
[18] = target: Ribosomal protein S6 kinase alpha-3 (Homo sapiens) (UniProt P51812); details: Compound concentration 100.0 nM
[19] = target: Serine/threonine-protein kinase DCLK2 (Homo sapiens) (UniProt Q8N568); details: Compound concentration 100.0 nM
[20] = target: Protein kinase C delta type (Homo sapiens) (UniProt Q05655); details: Compound concentration 100.0 nM
[21] = target: Wee1-like protein kinase 2 (Homo sapiens) (UniProt P0C1S8); details: Compound concentration 100.0 nM
[22] = target: NUAK family SNF1-like kinase 1 (Homo sapiens) (UniProt O60285); details: Compound concentration 100.0 nM
[23] = target: Serine/threonine-protein kinase TAO1 (Homo sapiens) (UniProt Q7L7X3); details: Compound concentration 100.0 nM
[24] = target: T1, Mitogen-activated protein kinase 13 (Homo sapiens) (UniProt O15264); details: Compound concentration 100.0 nM
T1 sequence (whole entry): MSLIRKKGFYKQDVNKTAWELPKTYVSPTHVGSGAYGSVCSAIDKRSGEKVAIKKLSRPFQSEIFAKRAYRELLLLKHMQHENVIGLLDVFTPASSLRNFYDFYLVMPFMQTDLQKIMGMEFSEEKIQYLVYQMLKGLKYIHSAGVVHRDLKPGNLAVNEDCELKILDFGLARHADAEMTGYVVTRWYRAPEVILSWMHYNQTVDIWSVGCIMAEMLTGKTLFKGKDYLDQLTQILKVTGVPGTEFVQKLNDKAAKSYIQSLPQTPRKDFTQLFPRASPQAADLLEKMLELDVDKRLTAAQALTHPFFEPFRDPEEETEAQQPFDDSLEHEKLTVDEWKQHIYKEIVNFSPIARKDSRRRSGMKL

[25] = target: Cyclin-dependent kinase 3 (Homo sapiens) (UniProt Q00526); details: Compound concentration 100.0 nM
[26] = target: Fibroblast growth factor receptor 4 (Homo sapiens) (UniProt P22455); details: Compound concentration 100.0 nM
[27] = target: Ribosomal protein S6 kinase alpha-1 (Homo sapiens) (UniProt Q15418); details: Compound concentration 100.0 nM
[28] = system: Phosphatidylinositol 4,5-bisphosphate 3-kinase catalytic subunit alpha isoform (Homo sapiens), P42336 [M1043I]; details: Compound concentration 100.0 nM
[29] = system: Tyrosine-protein kinase ABL1 (Homo sapiens), P00519 [T315I]; details: Compound concentration 100.0 nM
[30] = target: Serine/threonine-protein kinase pim-1 (Homo sapiens) (UniProt P11309); details: Compound concentration 100.0 nM
[31] = target: Serine/threonine-protein kinase SBK1 (Homo sapiens) (UniProt Q52WX2); details: Compound concentration 100.0 nM
[32] = target: Ephrin type-A receptor 3 (Homo sapiens) (UniProt P29320); details: Compound concentration 100.0 nM
Chain of Ephrin type-A receptor 3 (Homo sapiens) (P29320 whole entry): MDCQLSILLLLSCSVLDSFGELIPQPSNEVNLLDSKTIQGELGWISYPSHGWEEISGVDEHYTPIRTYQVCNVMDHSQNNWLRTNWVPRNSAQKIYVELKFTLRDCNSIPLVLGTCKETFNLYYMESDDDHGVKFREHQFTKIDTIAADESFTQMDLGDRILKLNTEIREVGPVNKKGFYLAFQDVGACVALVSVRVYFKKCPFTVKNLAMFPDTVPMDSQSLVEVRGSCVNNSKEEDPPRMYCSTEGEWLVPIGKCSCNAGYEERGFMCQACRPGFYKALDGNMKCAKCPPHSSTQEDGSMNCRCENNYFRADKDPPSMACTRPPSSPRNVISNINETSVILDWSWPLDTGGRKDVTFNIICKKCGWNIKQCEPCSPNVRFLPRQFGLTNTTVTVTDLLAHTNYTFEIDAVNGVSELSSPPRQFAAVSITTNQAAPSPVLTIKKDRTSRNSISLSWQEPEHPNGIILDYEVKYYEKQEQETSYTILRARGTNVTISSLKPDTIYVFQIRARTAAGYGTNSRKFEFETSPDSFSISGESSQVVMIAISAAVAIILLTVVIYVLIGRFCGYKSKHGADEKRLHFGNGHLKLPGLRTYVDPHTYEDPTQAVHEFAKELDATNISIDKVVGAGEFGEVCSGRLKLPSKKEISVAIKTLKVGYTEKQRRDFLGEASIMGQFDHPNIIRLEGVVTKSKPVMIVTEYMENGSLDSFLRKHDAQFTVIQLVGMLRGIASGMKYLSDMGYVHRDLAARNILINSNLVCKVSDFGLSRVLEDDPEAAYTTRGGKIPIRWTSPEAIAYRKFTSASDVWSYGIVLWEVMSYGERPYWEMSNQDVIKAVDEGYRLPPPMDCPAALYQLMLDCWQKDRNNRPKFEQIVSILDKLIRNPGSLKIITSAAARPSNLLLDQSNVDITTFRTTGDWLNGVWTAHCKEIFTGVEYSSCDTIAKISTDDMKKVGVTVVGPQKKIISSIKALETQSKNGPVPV

[33] = target: T2, MAP kinase-activated protein kinase 5 (Homo sapiens) (UniProt Q8IW41); details: Compound concentration 100.0 nM
T2 sequence (whole entry): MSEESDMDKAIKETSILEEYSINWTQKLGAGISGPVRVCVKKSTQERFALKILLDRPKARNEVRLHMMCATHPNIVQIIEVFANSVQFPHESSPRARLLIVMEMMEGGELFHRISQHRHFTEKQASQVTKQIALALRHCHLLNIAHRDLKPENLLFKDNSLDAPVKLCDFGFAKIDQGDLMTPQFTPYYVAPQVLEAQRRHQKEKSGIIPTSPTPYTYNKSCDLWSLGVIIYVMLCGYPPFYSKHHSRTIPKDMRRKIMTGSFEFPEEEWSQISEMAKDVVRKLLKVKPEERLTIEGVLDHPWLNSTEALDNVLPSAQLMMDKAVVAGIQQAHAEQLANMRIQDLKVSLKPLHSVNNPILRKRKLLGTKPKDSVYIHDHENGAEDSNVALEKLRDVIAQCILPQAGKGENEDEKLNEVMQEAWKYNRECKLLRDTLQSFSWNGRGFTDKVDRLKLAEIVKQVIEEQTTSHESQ

[34] = target: Interleukin-1 receptor-associated kinase 3 (Homo sapiens) (UniProt Q9Y616); details: Compound concentration 100.0 nM

Cn1cc(Cl)c2c(Oc3c(F)cc(Nc4cc(Cl)nc(N)n4)cc3F)ccnc21 [BAY-4900]
inactive: residual activity [1] 82% | residual activity [2] 89% | residual activity [3] 57% | residual activity [4] 89% | residual activity [5] 81% | residual activity [6] 96% | residual activity [7] 95% | residual activity [8] 100% | residual activity [9] 100% | residual activity [10] 98% | residual activity [11] 100% | residual activity [12] 90% | residual activity [13] 100% | residual activity [14] 85% | inhibition [15] 11.3% | residual activity [16] 89% | residual activity [17] 91% | residual activity [18] 71% | residual activity [19] 100% | residual activity [20] 100% | residual activity [21] 93% | residual activity [22] 96% | residual activity [23] 97% | residual activity [24] 95% | residual activity [25] 100% | residual activity [26] 86% | residual activity [27] 100% | residual activity [28] 64% | residual activity [29] 86% | residual activity [30] 100% | residual activity [31] 97% | residual activity [32] 83% | residual activity [33] 100% | residual activity [34] 97%

Cc1c[nH]c2nccc(Oc3c(F)cc(Nc4cc(Cl)nc(N)n4)cc3F)c12 [BAY-549]
inactive: residual activity [1] 75% | residual activity [2] 55% | residual activity [3] 91% | residual activity [4] 89% | residual activity [5] 100% | residual activity [6] 89% | residual activity [7] 90% | residual activity [8] 97% | residual activity [9] 89% | residual activity [10] 88% | residual activity [11] 97% | residual activity [12] 81% | residual activity [13] 100% | residual activity [14] 85% | inhibition [15] 11.4% | residual activity [16] 100% | residual activity [17] 100% | residual activity [18] 79% | residual activity [19] 100% | residual activity [20] 100% | residual activity [21] 91% | residual activity [22] 91% | residual activity [23] 84% | residual activity [24] 89% | residual activity [25] 97% | residual activity [26] 100% | residual activity [27] 100% | residual activity [28] 66% | residual activity [29] 84% | residual activity [30] 100% | residual activity [31] 94% | residual activity [32] 97% | residual activity [33] 81% | residual activity [34] 85%
